The results in this text go back to US7883785B2, “Rhodium and iridium complexes” (Merck Patent GmbH, priority 2002, dated 2011).

A short description of this data set: Solubilities of various complexes in toluene at 20° C. It counts as physicochemical. As to conditions: table title: Solubilities of various complexes.
For the molecule `c1ccc(-c2ccc3[c](c2)[Ir-3]24([c]5cc(-c6ccccc6)ccc5-c5cccc[n+]52)([c]2cc(-c5ccccc5)ccc2-c2cccc[n+]24)[n+]2ccccc2-3)cc1` [Compound 1, fac-Tris[2-(2-pyridinyl-κN)(5-(phenyl)phenyl)-κC]iridium(III)], the “Solubility in toluene at 20° C.” value was found to be 6.3 mg/mL. Regarding `Cc1ccccc1-c1ccc2[c](c1)[Ir-3]13([c]4cc(-c5ccccc5C)ccc4-c4cccc[n+]41)([c]1cc(-c4ccccc4C)ccc1-c1cccc[n+]13)[n+]1ccccc1-2` [Compound 2, fac-tris[2-(2-pyridinyl-κN)(5-(o-tolyl)phenyl)-κC]iridium(III)], the “Solubility in toluene at 20° C.” value came out at 25 mg/mL. For `CC(C)COc1ccc(-c2ccc3[c](c2)[Ir-3]24([c]5cc(-c6ccc(OCC(C)C)c(OCC(C)C)c6)ccc5-c5cccc[n+]52)([c]2cc(-c5ccc(OCC(C)C)c(OCC(C)C)c5)ccc2-c2cccc[n+]24)[n+]2ccccc2-3)cc1OCC(C)C` [Compound 8, fac-Tris[2-(2-pyridinyl-κN)(5-(3,4-bis(2-methylpropoxy)phenyl)phenyl)-κC]iridium(III)], the “Solubility in toluene at 20° C.” value turned out to be 92 mg/mL. The figure for `Cc1ccc(C)c(-c2ccc3[c](c2)[Ir-3]24([c]5cc(-c6cc(C)ccc6C)ccc5-c5cccc[n+]52)([c]2cc(-c5cc(C)ccc5C)ccc2-c2cccc[n+]24)[n+]2ccccc2-3)c1` [Compound 7, fac-Tris[2-(2-pyridinyl-κN)(5-(2,5-dimethylphenyl)phenyl)-κC]-iridium(III)] is 32 mg/mL.
